Assay results reported in US20120065228A1, “COMPOSITIONS AND METHODS FOR TREATING, CONTROLLING, REDUCING, OR AMELIORATING OCULAR INFLAMMATORY WITH LOWER RISK OF INCREASED INTRAOCULAR PRESSURE” (priority 2007, published 2012).
Values joined by “and” are separate entries in the source; they are usually repeats but may differ in a detail not shown here. Equal entries are not always repeated. Where two headings read alike, the source gives them in different places.

Assays:
Myeloperoxidase (MPO) = Myeloperoxidase (MPO) activity in iris-ciliary body, rabbit paracentesis model; format: in vivo; details: for MPO Unit/g: iris-ciliary body samples collected after the second paracentesis, individual eyes (DX/SX); for MPO activity in iris-ciliary body, Mean: after the second paracentesis
Method: Each rabbit was placed in a restraint device and tagged with the alphanumeric code. The formulations were instilled (50 μl) into the conjunctival sac of both eyes 180, 120, 90 and 30 min before the first paracentesis; then 15, 30, 90 min after the first paracentesis. To perform the first paracentesis the animals were anaesthetized by intravenous injection of 5 mg/kg Zoletil® (Virbac; 2.5 mg/kg tiletamine HCl and 2.5 mg/kg zolazepam HCl) and one drop of local anesthetic (Novesina®, Novartis) was administered to the eye. Anterior chamber paracentesis was performed with a 26 G needle attached to a tuberculin syringe; the needle was introduced into the anterior chamber through the cornea, taking care not to damage the tissues. Two hours after the ® first paracentesis, the animals were sacrificed with 0.4 ml Tanax® (Intervet International B.V.) and the second paracentesis was performed. About 100 μl of aqueous humor were removed at the second paracentesis. Aqueous humor was immediately split in four aliquots and stored at −80° C. until analysis. Then both eyes were enucleated and the iris-ciliary body was carefully excised, placed in polypropylene tubes, and stored at −80° C. until analysis.
The activity of MPO was measured as previously described by Williams et al. The iris-ciliary bodies were carefully dried, weighed and immersed in 1 ml of hexa-decyl-trimethyl-ammonium bromide solution. Then, the samples were sonicated for 10 sec on ice by a ultrasound homogenizer (HD 2070, Bandelin electronic), freeze-thawed three times, sonicated for 10 sec and centrifuged at 14,000 g for 10 min to remove cellular debris. An aliquot of the supernatant (40-200 μl) was diluted to 3 ml with the o-dianisidine 2HCl/H2O2 solution. The change in absorbance at 460 nm was continuously monitored for 5 min by a spectrophotometer (UV/Vis Spectrometer Lambda EZ 201; Perkin Elmer). The slope of the line (Δ/min) was determined for each sample and used to calculate the number of units of MPO in the tissue as follows:
were ε=11.3 mM^−1. Values were expressed as units of MPO/g of tissue.
Pupillary diameter, PGE2, protein, PMN, and MPO were expressed as mean±SEM. Statistical analysis was performed using one way ANOVA followed by a Newman-Keuls post hoc test. Clinical score was expressed as % of eyes and the statistical analysis was performed using Kruskal-Wallis followed by a Dunn post hoc test. P<0.05 was considered statistically significant in both cases. Prism 4 software (GraphPad Software, Inc.) was used for the analysis and graphs.

[1] = system: New Zealand White rabbits; format: in vivo; details: for Rabbits that died or were euthanized between Days 11 and 33: right eye four times daily, Days 1-31; for Mortality (animals found dead or euthanized prior to study completion/number of animals in group): 50 μL topical right eye 4 x daily, to Day 33; for Mortality rate: right eye four times daily up to 31 days, dexamethasone 0.05 mg/dose, BOL-303242-X per dose level (0.05, 0.25, 0.5 mg/dose)
Method: On Days 1-31, animals received daily topical doses of the appropriate test article into the right eye. Animals were dosed four times per day, with doses administered 2 hours apart. Doses were administered using a calibrated 50-μL pipette. The eyelids were held close for 10 seconds immediately following dosing. The time of each dose administration was recorded.
Animals determined to be moribund were euthanized with an intravenous injection of commercial euthanasia solution.

myocilin mRNA = experiment: Myocilin mRNA expression in monkey TM cells (qRT-PCR); format: cell-based, rhesus monkeys (Macaca mulatta); details: for EC50: Macaca mulatta, cultured monkey TM cells, weighted average, two dose-response studies each using two TM cell strains, read-out: EC50 ± SE, expression of myocilin mRNA
Method: For each study, up to nine TM cell strains, each derived from an individual monkey, were tested separately. Cells were thawed and seeded into 12- or 48-well clusters (Falcon, BD Biosciences; 150,000 and 30,000 cells/well, respectively) in proliferation medium. When cells were 75% to 90% confluent proliferation medium was replaced by a 5:4 mixture of HESFM and Dulbecco's MEM, respectively, supplemented with 10% FBS, with added taurine, ascorbic acid phosphate, glutathione, and antibiotic as for proliferation medium (above), and with 2.72 g/L glucose and 1.72 g/L fructose. At confluence, the medium was changed to Dulbecco's MEM, containing 10% FBS^40, ascorbic acid phosphate, antibiotic, 2.72 g/L glucose and 1.72 g/L fructose. Cells were maintained as stable, confluent monolayers in this latter medium for 4 to 7 days before experimental treatments commenced.
After quantification of purified total RNA (Quant-iT RNA Assay kit, Molecular Probes, Eugene, Oreg.), equivalent amounts of this RNA were apportioned to generate first-strand cDNAs for each treatment sample, using random primers, (Affinity Script, Stratagene, La Jolla, Calif.). Oligonucleotide myocilin primers, designed based on the cynomolgus MYOC gene, and fluorescent Taqman probe (Applied Biosystems, Foster City, Calif.) were used for PCR amplification. Equal amounts of total RNA-equivalent mass (approximate range […]) reactant cDNA were added to the PCR Master Mix (Stratagene) and myocilin primers/Taqman probe. Amplification was performed in a thermocycler (Mx3005P, Stratagene), with an initial denaturation step at 95° C. for 10 min, followed by 40 cycles of 95° C. for 15 sec and 60° C. for 1 min for extension. Every run included standard controls (i.e., either without reverse transcriptase or lacking template). Relative quantities of myocilin mRNA abundance were determined using differences in threshold cycles (“Ct”) between vehicle control and drug treatments. Each sample was analyzed in triplicate wells, and the corresponding values averaged for further quantitative analysis. Myocilin mRNA abundance, expressed in proportion to vehicle control-treated samples, was calculated using the Mx3005P software.
Data underwent Box-Cox transformations for one- or two-way analysis of variance (ANOVA), followed by the Tukey-Kramer test, using JMP software (SAS, Cary, N.C.). The specific transformations used for analyses are mentioned in the figure legends. For each set of triplicate samples from the individual monkey TM cell strains tested, Western blot densitometry values for myocilin protein detected in CM (as geometric means), and relative abundance of myocilin mRNA (as geometric means), were plotted as a function of drug concentrations. P-values less than 0.05 were considered statistically significant. […]

[2] = 0.05 mg/dose (0.1% dexamethasone suspension; 1 mg/g BOL-303242-X suspension)

Structure (SMILES): Cc1ccc2c(NCC(O)(CC(C)(C)c3cc(F)cc4c3OCC4)C(F)(F)F)cccc2n1 (stereo not shown) [BOL-303242-X]
- MPO Unit/g (Myeloperoxidase (MPO); 0.1% BOL, listed as BOL): 1.04 Unit/g and 1.00 Unit/g and 1.14 Unit/g and 1.06 Unit/g and 1.22 Unit/g and 0.61 Unit/g and 1.05 Unit/g and 0.65 Unit/g
- MPO activity in iris-ciliary body, Mean (Myeloperoxidase (MPO); 0.1% topical formulation): 0.971 MPO Unit/g
- MPO Unit/g (Myeloperoxidase (MPO); 0.5% BOL, listed as BOL): 0.85 Unit/g and 0.93 Unit/g and 0.79 Unit/g and 1.03 Unit/g and 0.75 Unit/g and 0.74 Unit/g and 0.54 Unit/g and 0.58 Unit/g
- MPO activity in iris-ciliary body, Mean (Myeloperoxidase (MPO); 0.5% topical formulation): 0.775 MPO Unit/g
- MPO Unit/g (Myeloperoxidase (MPO); 1% BOL, listed as BOL): 0.66 Unit/g and 0.68 Unit/g and 0.49 Unit/g and 0.40 Unit/g and 0.34 Unit/g and 1.02 Unit/g and 0.31 Unit/g and 0.43 Unit/g
- MPO activity in iris-ciliary body, Mean (Myeloperoxidase (MPO); 1% topical formulation): 0.542 MPO Unit/g
- Rabbits that died or were euthanized between Days 11 and 33 [1, 2]: one of ten
- Mortality (animals found dead or euthanized prior to study completion/number of animals in group) ([1]; 1 mg/g, 0.05 mg/dose): 1/10^(6)
- Day of Death (day euthanized or found dead) ([1]; 5 mg/g BOL-303242-X ([…]) topical 4 x daily, individual rabbits, Group C): 33
- Rabbits that died or were euthanized between Days 11 and 33 ([1]; 5 mg/g suspension ([…])): two of ten
- Mortality (animals found dead or euthanized prior to study completion/number of animals in group) ([1]; 5 mg/g, […]): 2/10^(5)
- Day of Death (day euthanized or found dead) ([1]; 10 mg/g BOL-303242-X (0.5 mg/dose) topical 4 x daily, individual rabbit, Group B): 11
- Rabbits that died or were euthanized between Days 11 and 33 ([1]; 10 mg/g suspension (0.5 mg/dose)): one of ten
- Morbidity observation in surviving rabbits ([1]; 10 mg/g suspension (0.5 mg/dose), one surviving rabbit (Group B, No. 3048)): diarrhea on Day 18
- Mortality (animals found dead or euthanized prior to study completion/number of animals in group) ([1]; 10 mg/g, 0.5 mg/dose): 1/10^(4)
- Mortality rate [1]: 1-2 deaths per 10 rabbits
- Maximal efficacy for myocilin mRNA expression, relative to DEX (myocilin mRNA; 300 nM, monkey TM cells): approximately 67%
- EC50 (myocilin mRNA): 20.8 ± 2.74 nM
- Myocilin mRNA abundance compared with DEX (myocilin mRNA; all doses, monkey TM cells): significantly lower mRNA abundance values

Structure (SMILES): C[C@@H]1C[C@H]2[C@@H]3CCC4=CC(=O)C=C[C@]4(C)[C@@]3(F)[C@@H](O)C[C@]2(C)[C@@]1(O)C(=O)CO [dexamethasone, reference compound]
- MPO Unit/g (Myeloperoxidase (MPO); 0.1% Dex, listed as Dex): 0.71 Unit/g and 0.60 Unit/g and 1.32 Unit/g and 0.48 Unit/g (2×) and 0.39 Unit/g and 0.45 Unit/g and 0.51 Unit/g
- MPO activity in iris-ciliary body, Mean (Myeloperoxidase (MPO); 0.1% topical formulation): 0.618 MPO Unit/g
- Rabbits that died or were euthanized between Days 11 and 33 [1, 2]: Six of ten
- Mortality (animals found dead or euthanized prior to study completion/number of animals in group) ([1]; 0.1% Dexamethasone (Maxidex), 0.05 mg/dose): 6/10^(3)
- Mortality rate [1]: 6 deaths per 10 rabbits
- EC50 (myocilin mRNA): 14.7 ± 1.27 nM
